Measured values reported in paper PMC7782793, “Hydroxamic acid-modified peptide microarrays for profiling isozyme-selective interactions and inhibition of histone deacetylases” (Nature Communications, 2021).
Values joined by “and” are separate entries in the source; they are usually repeats but may differ in a detail not shown here. Identical values can stand only once. Marks after values point to notes of the source that are not given here. Non-standard residues stand in square brackets, D forms with d. Residues, ends and D or L forms follow the SMILES beside them. *: point of attachment. Asu = N[C@@H](CCCCCC(=O)O)C(=O)O; NHOH = ON*

Molecular target: T1, HDAC8 (Homo sapiens, UniProt Q9BY41)
T1 construct: HDAC8 (full length, C-terminal His tag, BPS Bioscience, cat. #: 50008); purchased BPS Bioscience 50008
T1 sequence (Q9BY41 1-377): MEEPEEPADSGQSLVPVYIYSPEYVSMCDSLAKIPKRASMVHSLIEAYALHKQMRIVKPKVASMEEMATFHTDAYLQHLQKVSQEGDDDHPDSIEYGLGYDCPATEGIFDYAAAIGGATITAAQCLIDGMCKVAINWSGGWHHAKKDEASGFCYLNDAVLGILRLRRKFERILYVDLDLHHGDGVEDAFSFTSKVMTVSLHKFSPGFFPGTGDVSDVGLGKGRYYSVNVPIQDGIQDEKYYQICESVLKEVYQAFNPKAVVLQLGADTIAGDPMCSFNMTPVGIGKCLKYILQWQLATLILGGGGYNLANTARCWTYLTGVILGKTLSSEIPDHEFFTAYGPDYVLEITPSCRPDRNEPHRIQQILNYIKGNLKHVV
Assay: HDAC inhibition assay (fluorogenic, Ac-Leu-Gly-Lys(Tfa)-AMC)
Type: biochemical
Details: for HDAC8 dose-response data (relative enzyme activity, replicate values), Fig. 6 + S. Fig. 10: two replicate columns per inhibitor; for HDAC8 dose-response data (relative enzyme activity), Fig. 6 + S. Fig. 10: duplicate columns

[1] = Inhibitor conc [M] -8.49485 (log)
[2] = Inhibitor conc [M] -9.19382 (log)
[3] = Inhibitor conc [M] given as -7.09691 (log)
[4] = Inhibitor conc [M] given as -7.79588 (log)
[5] = Inhibitor conc [M] given as -9.89279 (log)
[6] = Inhibitor conc [M] given as -10.585 (log)

Compound | Ki [µM] | HDAC8 dose-response data (relative enzyme activity, replicate values), Fig. 6 + S. Fig. 10 [1] | HDAC8 dose-response data (relative enzyme activity, replicate values), Fig. 6 + S. Fig. 10 [2] | HDAC8 dose-response data (relative enzyme activity, replicate values), Fig. 6 + S. Fig. 10 [3] | HDAC8 dose-response data (relative enzyme activity, replicate values), Fig. 6 + S. Fig. 10 [4] | HDAC8 dose-response data (relative enzyme activity, replicate values), Fig. 6 + S. Fig. 10 [5] | HDAC8 dose-response data (relative enzyme activity, replicate values), Fig. 6 + S. Fig. 10 [6] | HDAC8 dose-response data (relative enzyme activity), Fig. 6 + S. Fig. 10 (Inhibitor conc [M] -4.30103) | HDAC8 dose-response data (relative enzyme activity), Fig. 6 + S. Fig. 10 (Inhibitor conc [M] -5) | HDAC8 dose-response data (relative enzyme activity), Fig. 6 + S. Fig. 10 (Inhibitor conc [M] -5.69897) | HDAC8 dose-response data (relative enzyme activity), Fig. 6 + S. Fig. 10 (Inhibitor conc [M] -6.39794) | HDAC8 dose-response data (relative enzyme activity), Fig. 6 + S. Fig. 10 (Inhibitor conc [M] -3.60206) | HDAC8 inhibition in words (in solution)
CC(=O)NCC(=O)NCC(=O)N[C@@H](CCCCCC(=O)NO)C(=O)N[C@@H](C)C(=O)N[C@@H](CCCNC(=N)N)C(=O)N[C@@H](C)C(=O)N[C@@H](CCCCN)C(=O)N[C@@H](C)C(=O)N[C@@H](CCCCN)C(=O)N[C@H](C(=O)N[C@@H](CCCNC(=N)N)C(=O)N[C@@H](CO)C(=O)N[C@@H](CO)C(=O)N[C@@H](CCCNC(=N)N)C(=O)N[C@@H](C)C(=O)NCC(=O)N[C@@H](Cc1c[nH]c2ccccc12)C(N)=O)[C@@H](C)O [9a] (Ac-GG[Asu](NHOH)ARAKAKTRSSRAGW-NH2) | 5.57 ± 0.13 | 101.387 and 98.0647 | 105.308 and 102.184 | 100.377 and 94.2492 | 101.512 and 95.1709 | 102.446 and 100.014 | 102,003* and 99,4628* | 8.643 and 13.2074 | 41.9349 and 42.6215 | 76.1615 and 76.0658 | 95.4429 and 93.9691 | – | –
CC(=O)N[C@@H](C)C(=O)N1CCC[C@H]1C(=O)N[C@@H](C)C(=O)N1CCC[C@H]1C(=O)N[C@@H](CCCCN)C(=O)N[C@@H](CCCCCC(=O)NO)C(=O)NCC(=O)N[C@@H](CO)C(=O)N[C@@H](CCCCN)C(=O)N[C@@H](CCCCN)C(=O)N[C@@H](C)C(=O)N[C@H](C(=O)N[C@H](C(=O)N[C@@H](CCCCN)C(=O)N[C@@H](C)C(=O)N[C@@H](CCC(N)=O)C(=O)N[C@@H](Cc1c[nH]c2ccccc12)C(N)=O)[C@@H](C)O)C(C)C [10a] (Ac-APAPK[Asu](NHOH)GSKKAVTKAQW-NH2) | 2.24 ± 0.02 | 108.857 and 102.18 | 106.186 and 101.221 | 102.611 and 104.497 | 103.781 and 99.0423 | 110.267 and 101.97 | – | 9.773 and 11.8218 | 29.4256 and 37.404 | 62.2051 and 60.7878 | 91.1582 and 94.1836 | 2.527 and 3.969 | –
CC(=O)N1CCC[C@H]1C(=O)N[C@@H](CCCNC(=N)N)C(=O)N[C@@H](CCCCN)C(=O)N[C@@H](CCC(N)=O)C(=O)N[C@@H](CC(C)C)C(=O)N[C@@H](C)C(=O)N[C@H](C(=O)N[C@@H](CCCCN)C(=O)N[C@@H](C)C(=O)N[C@@H](C)C(=O)N[C@@H](CCCNC(=N)N)C(=O)N[C@@H](CCCCCC(=O)NO)C(=O)N[C@@H](CO)C(=O)N[C@@H](C)C(=O)N1CCC[C@H]1C(=O)N[C@@H](C)C(=O)N[C@@H](Cc1c[nH]c2ccccc12)C(N)=O)[C@@H](C)O [14a] (Ac-PRKQLATKAAR[Asu](NHOH)SAPAW-NH2) | 0.055 ± 0.0007 | 89.9056 and 98.262 | 96.4725 and 98.8615 | 43.1119 and 55.3592 | 72.8593 and 80.9184 | 99.4729 and 100.504 | – | 2.477 and 2.544 | 8.237 and 8.756 | 16.1631 and 21.2375 | 27.7385 and 36.3881 | – | robust nanomolar potency
CC(=O)N[C@@H](CC(C)C)C(=O)NCC(=O)N[C@@H](CCCCN)C(=O)NCC(=O)NCC(=O)N[C@@H](C)C(=O)N[C@@H](CCCCCC(=O)NO)C(=O)N[C@@H](CCCNC(=N)N)C(=O)N[C@@H](Cc1c[nH]cn1)C(=O)N[C@@H](CCCNC(=N)N)C(=O)N[C@@H](CCCCN)C(=O)N[C@H](C(=O)N[C@@H](CC(C)C)C(=O)N[C@@H](CCCNC(=N)N)C(=O)N[C@@H](CC(=O)O)C(=O)N[C@@H](CC(N)=O)C(=O)N[C@@H](Cc1c[nH]c2ccccc12)C(N)=O)C(C)C [16a] (Ac-LGKGGA[Asu](NHOH)RHRKVLRDNW-NH2) | 3.96 ± 0.03 | 105.989 and 103.599 | 103.027 and 101.95 | 102.108 and 99.2954 | 104.22 and 100.942 | 101.805 and 102.182 | 101,084* and 101,486* | 9.568 and 11.2045 | 36.7683 and 38.5294 | 76.0846 and 76.9796 | 95.2833 and 94.1446 | – | –
